Experimental data taken from article PMC5917010, “Structural basis for GPR40 allosteric agonism and incretin stimulation” (Nature Communications, 2018).
Like-named read-outs stand apart in the source and are kept apart here.

Key:
[1] = test system: wild type C57BL/6 mice; assay: Oral glucose tolerance test (OGTT) in wild type C57BL/6 mice; type: in vivo, mouse
Method: (§1) Eight to thirteen week old male C57BL/6 or KO mice were used. The day before the study, at 1600 hours, animals were transferred into clean cages and food was removed. The following morning (~0800 hours), mice were randomized by block randomization to treatment groups (N = 5–7 per group) so each group had similar mean and standard deviation of body weight and blood glucose. […] Animals were dosed with vehicle (0.5% MC/0.25% Tween-80) or the test article by oral gavage. Group allocations were not blinded from the experimenters who collected the data. After 60 min compound treatment animals were then given an oral gavage of glucose (2 g/kg). At 0, 15, 30, 60, and 120 min post oral glucose, two glucose readings via glucometers were obtained. The average of two glucose readings was reported at each time point. Data were expressed as mean±standard error (s.e.m.). Blood glucose values were analyzed using ANOVA with repeated measures. Cook’s distance was also calculated from linear regression. All animals were included in the analysis with their individual averaged Cook’s distance < 1. Dunnett’s comparison was performed at each time point by R program. Significance is denoted at p < 0.05.

[2] = test system: C57Bl/6 mice; assay: Incretin secretion assay in C57Bl/6 mice; type: in vivo, mouse; details: for plasma PYY level: Fig. 3e; for plasma total GLP-1: wild type C57BL/6 mice
Method: Nine week old male C57Bl/6 mice (Envigo, Indianapolis) were used. The night before the incretin assay, mice were transferred to clean cages and fasted overnight. On the morning of the assay, the mice were weighed and randomized by block randomization into groups based on body weight (N = 6) so each group had similar mean and standard deviation of body weight. […] Animals were dosed with vehicle or the test article by oral gavage. Group allocations were not blinded from the experimenters who collected the data. The mice were sacrificed at 0.5, 1, 2, 4, or 8 h post the compound treatment. Blood was taken by cardiac puncture into EDTA tubes containing DPPIV inhibitor and aprotinin cocktail after CO2 euthanization. The final DPPIV inhibitor concentration was 50 µM and aprotinin was 250 K IU/mL. Blood samples were centrifuged at 3000×g for 5 min and plasma transferred into 96 well plates. Plasma total GLP-1 and active GIP levels were measured by ELISA assays that were developed in-house. Data were expressed as mean±s.e.m. […] Cook’s distance was also calculated from linear regression. All animals were included in the analysis with their individual Cook’s distance < 1. Significance is denoted at p < 0.05.

[3] = target: Mouse GPR40 (Mus musculus, UniProt Q76JU9); assay: Mouse GPR40 b-arrestin; type: cell-based
[4] = target: Rat GPR40 (Rattus norvegicus, UniProt Q8K3T4); assay: Rat GPR40 b-arrestin; type: cell-based
[5] = target: T1, Human GPR120 (Homo sapiens, UniProt Q5NUL3); assay: Human GPR120 binding; details: Supplementary Table 1
T1 sequence (Q5NUL3 1-361): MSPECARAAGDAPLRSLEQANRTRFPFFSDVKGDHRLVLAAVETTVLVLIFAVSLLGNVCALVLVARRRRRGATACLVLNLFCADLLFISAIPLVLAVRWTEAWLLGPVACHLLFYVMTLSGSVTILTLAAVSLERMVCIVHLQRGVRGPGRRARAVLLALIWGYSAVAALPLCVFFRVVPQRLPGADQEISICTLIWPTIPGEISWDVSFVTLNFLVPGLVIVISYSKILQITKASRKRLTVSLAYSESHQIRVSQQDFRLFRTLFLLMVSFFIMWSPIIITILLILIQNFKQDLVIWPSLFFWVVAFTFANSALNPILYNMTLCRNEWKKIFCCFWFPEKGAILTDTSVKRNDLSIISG

[6] = target: T1, Human GPR120; assay: Human GPR120 Calcium (FLIPR); type: cell-based; details: Supplementary Table 1
[7] = target: T2, Mouse GPR120 (Mus musculus, UniProt Q7TMA4); assay: Mouse GPR120 b-arrestin; type: cell-based; details: Supplementary Table 1
T2 sequence (Q7TMA4 1-361): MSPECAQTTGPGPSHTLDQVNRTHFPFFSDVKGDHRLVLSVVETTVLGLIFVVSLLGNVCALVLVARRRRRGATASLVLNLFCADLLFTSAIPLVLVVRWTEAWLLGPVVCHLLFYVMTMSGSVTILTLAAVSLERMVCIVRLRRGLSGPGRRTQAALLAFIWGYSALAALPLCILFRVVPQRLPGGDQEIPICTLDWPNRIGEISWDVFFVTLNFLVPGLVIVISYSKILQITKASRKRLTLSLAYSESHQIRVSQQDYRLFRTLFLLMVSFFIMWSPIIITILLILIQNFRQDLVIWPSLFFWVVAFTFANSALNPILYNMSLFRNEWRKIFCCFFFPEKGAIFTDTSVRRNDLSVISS

[8] = target: T3, human PPARalpha (Homo sapiens, UniProt Q07869); assay: human PPARalpha binding; details: Supplementary Table 1
T3 sequence (Q07869 1-468): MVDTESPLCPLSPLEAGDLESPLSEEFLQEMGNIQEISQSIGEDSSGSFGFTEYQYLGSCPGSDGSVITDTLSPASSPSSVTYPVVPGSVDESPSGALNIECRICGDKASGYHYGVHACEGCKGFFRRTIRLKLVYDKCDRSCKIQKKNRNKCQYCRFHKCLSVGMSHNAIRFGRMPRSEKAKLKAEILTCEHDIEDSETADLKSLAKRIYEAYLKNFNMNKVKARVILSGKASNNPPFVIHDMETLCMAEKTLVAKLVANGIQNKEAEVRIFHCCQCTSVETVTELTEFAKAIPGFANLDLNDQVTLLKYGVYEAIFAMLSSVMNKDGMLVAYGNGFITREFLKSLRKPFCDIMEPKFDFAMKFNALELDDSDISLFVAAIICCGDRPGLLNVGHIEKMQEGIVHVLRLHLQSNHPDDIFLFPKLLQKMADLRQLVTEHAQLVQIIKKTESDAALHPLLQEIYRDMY

[9] = test system: GFP; assay: cAMP accumulation assay, GFP control
Method: (§2) HEK293 cells transiently transfected with Promega’s cAMP response element (CRE/luc2P) and a GPR40 construct were plated (40K cells/well) into 96-well microtiter plates using Dulbecco’s Modified Eagle’s Medium (DMEM) supplemented with 10% FBS, 20 mM HEPES, pH 7.4, 100 U/mL Penicillin, 100 µg/mL Streptomycin, and 800 µg/mL Geneticin. Test compounds were serially diluted three-fold in 100% DMSO and immediately diluted in media. […] EC50 values were calculated using a four-parameter logistic curve fitting equation.

[10] = test system: GPR120 KO mice; assay: OGTT in GPR120 KO mice; type: in vivo, mouse; details: 5 mg/kg
Method: as §1

[11] = target: hRORbeta (Homo sapiens, UniProt Q92753); assay: hRORbeta binding
[12] = Mouse hepatocyte clearance; type: in vitro ADME; details: hepatocytes
[13] = target: GPR40 S123A (Homo sapiens, UniProt O14842, S123A); assay: cAMP accumulation assay, S123A mutant
Chain of GPR40 S123A (O14842 whole entry S123A): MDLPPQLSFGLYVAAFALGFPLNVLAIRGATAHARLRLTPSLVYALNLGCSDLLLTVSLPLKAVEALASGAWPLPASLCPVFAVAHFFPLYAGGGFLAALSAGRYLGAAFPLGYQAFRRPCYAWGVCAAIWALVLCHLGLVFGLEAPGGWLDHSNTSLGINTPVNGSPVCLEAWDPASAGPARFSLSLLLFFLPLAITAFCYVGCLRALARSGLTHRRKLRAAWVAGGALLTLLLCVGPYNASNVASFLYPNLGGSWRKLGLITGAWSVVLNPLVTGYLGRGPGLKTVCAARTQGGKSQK
Method: as §2

Chain of Mouse GPR40 (Q76JU9 whole entry): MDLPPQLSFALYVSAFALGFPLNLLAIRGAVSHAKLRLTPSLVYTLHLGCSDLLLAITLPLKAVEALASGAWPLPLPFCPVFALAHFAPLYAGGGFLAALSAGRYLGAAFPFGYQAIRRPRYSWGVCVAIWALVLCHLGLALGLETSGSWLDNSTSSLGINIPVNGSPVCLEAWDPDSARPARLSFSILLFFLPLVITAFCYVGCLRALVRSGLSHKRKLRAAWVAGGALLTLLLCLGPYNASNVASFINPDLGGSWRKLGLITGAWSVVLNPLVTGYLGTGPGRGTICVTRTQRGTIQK
Chain of Rat GPR40 (Q8K3T4 whole entry): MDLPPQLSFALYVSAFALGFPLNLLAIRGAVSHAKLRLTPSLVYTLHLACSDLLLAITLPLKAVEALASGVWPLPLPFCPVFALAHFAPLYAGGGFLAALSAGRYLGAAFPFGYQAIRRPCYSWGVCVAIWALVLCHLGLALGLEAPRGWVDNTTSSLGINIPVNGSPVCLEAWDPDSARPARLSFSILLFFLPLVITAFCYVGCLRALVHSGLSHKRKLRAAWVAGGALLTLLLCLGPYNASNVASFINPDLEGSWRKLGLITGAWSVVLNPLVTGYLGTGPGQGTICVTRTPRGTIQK
Chain of hRORbeta (Q92753 whole entry): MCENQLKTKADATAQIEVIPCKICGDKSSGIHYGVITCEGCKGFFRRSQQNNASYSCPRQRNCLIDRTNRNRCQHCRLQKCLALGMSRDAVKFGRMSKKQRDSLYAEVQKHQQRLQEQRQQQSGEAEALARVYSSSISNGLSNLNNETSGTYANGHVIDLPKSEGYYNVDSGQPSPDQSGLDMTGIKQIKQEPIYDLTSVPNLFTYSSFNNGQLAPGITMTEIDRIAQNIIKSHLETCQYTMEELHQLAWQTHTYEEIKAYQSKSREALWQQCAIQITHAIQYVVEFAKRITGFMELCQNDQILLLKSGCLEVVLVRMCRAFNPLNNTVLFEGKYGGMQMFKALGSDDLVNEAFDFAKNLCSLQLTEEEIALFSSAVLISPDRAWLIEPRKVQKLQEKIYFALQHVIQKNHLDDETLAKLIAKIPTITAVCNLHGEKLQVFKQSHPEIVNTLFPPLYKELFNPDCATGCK

SMILES: Cc1cc(OCCCS(C)(=O)=O)cc(C)c1-c1cccc(COc2ccc3c(c2)OC[C@H]3CC(=O)O)c1 [TAK-875]
- glucose in OGTT ([1]; 30 and 60 mg kg-1): Decreases in glucose
- plasma PYY level [2]: no effect on plasma PYY level
- plasma total GLP-1 ([2]; oral treatment at 30 mg/kg): no effect on plasma total GLP-1
- EC50 [3]: 0.0086 µM
- EC50 [4]: 0.036 µM
- Ki [5]: > 100 µM
- EC50 [6]: > 50 µM
- EC50 [7]: > 50 µM
- Ki [8]: > 10 µM
- cAMP accumulation EC50, GFP ([9]; GFP control, Fig. 6c,d): no fit

SMILES: COc1ccc(C(=O)N(CC(C)(C)C)c2cccc(C)n2)c(N2CCC(c3cc4ccc([C@@H](CC(=O)O)C5CC5)cc4o3)CC2)c1 [compound 1]
- glucose excursion in OGTT ([1]; various oral doses): Dose dependent decreases in glucose excursion
- glucose excursion in OGTT, GPR120 KO [10]: significant decrease in glucose excursion
- plasma PYY level [2]: no effect on plasma PYY level
- plasma active GIP concentrations ([2]; oral gavage, up to 8 h): significantly increases plasma active GIP concentrations up to 8 h
- plasma total GLP-1 concentrations ([2]; oral gavage, up to 8 h): significantly increases plasma total GLP-1 concentrations up to 8 h
- plasma total GLP-1 ([2]; oral treatment at 10 mg/kg, 4-hour window): sustains an elevated level of plasma total GLP-1
- EC50 [3]: 0.0016 µM
- Emax [3]: 146%
- EC50 [4]: 0.0021 µM
- Emax [4]: 163%
- Ki [5]: > 100 µM
- EC50 [6]: > 50 µM
- EC50 [7]: > 50 µM
- Ki [8]: > 10 µM
- Ki [11]: > 13 µM
- recovery ([12]; no ABT, read-out: Mouse Hepatocyte Clearance no ABT % Recovery): 103%
- hepatocyte CLint ([12]; no ABT, read-out: Mouse Hepatocyte Clearance no ABT Intrinsic Clearance): 9.2 µL/min/1e6 cells
- recovery ([12]; with ABT (concentration not stated), read-out: Mouse Hepatocyte Clearance ABT % Recovery): 92.8%
- hepatocyte CLint ([12]; with ABT, read-out: Mouse Hepatocyte Clearance ABT Intrinsic Clearance): 12.4 µL/min/1e6 cells
- EC50 ([9]; Homo sapiens, read-out: cAMP accumulation EC50, GFP): > 30 µM
- EC50 [13]: > 30 µM
